# Reference: patent publication US20230309522A1, “ANIMAL MODEL, METHODS FOR MAKING AND USING THEREOF, AND COMPOSITION FOR TREATING ATAXIA” (priority 2022, published 2023)
# Marks after values point to notes of the source that are not given here.
# Tests used:
# Type in all cases: in vivo, mouse
# Cry1 = assay: Quantitative RT-PCR of brain regions, Cry1 mRNA
# Description: (§1) To prepare RNA by RT-PCR, mice were deeply anesthetized with isoflurane inhalation. […] Total RNA was extracted by TRIzol reagent-based procedure (Thermofisher scientific, USA) and quantified by NanoDrop 2000 spectrophotometer ([…], USA). The total RNA obtained (20 μg) was reverse-transcribed to synthesize complementary DNA (cDNA) using a first-strand cDNA synthesis kit (Takara. Japan). Quantitative assays were performed on each cDNA using the primers listed in Table 3 with SYBR® Premix Ex Taq™ (Takara, Japan) in the given cycling condition (95° C. for 30 seconds, 32 cycles of 95° C. for 5 seconds and 60° C. for 30 seconds), as provided by the manufacturer's instruction.
# C57BU6J mice [1] = assay: Determining the least concentration of 3AP for induction of ataxia-like behaviors: survival time
# Description: Six to seven-week-old C57BU6J and B6.129-Arnt1^tm1Bra/J (Bmal1 gene-deficient mice) male mice were used for all experiments described hereinafter. All experiments were performed on mice anesthetized by an intraperitoneal (i.p.) injection of 100 mg ketamine/kg and 20 mg xylazine/kg, based on their body weights.
# In this example, a chemically-induced ataxia animal model was established upon systematic application of 3AP^19,20. Besides systematic (i.e. intraperitoneal, i.p., injection), local injection [in cerebellum, coordinate (Bregma): −7.08, 0, −2.1] of 3AP in C57BU6J mice could also be used to generate the chemically-induced ataxia animal models^23-25. Initially, different concentrations of 3AP were applied for determining the least concentration of 3AP for life-long induction of ataxia-like behaviors (Table 1).
# Bmal1 = assay: Quantitative RT-PCR of brain regions, Bmal1 mRNA
# Description: as §1
# C57BU6J mice [2] = assay: Footprint test on 3AP-induced ataxia mice
# Source text: (§2) Four different behavior tests were used in the present disclosure: footprint, irregular ladder, rotarod and body balance (elevated beam) tests. These behavior tests have been widely used for detection of ataxia^40-42. Two different time durations were used to differentiate the peak and trough expressions of the Bmal1 gene. i.e., daytime described herein refers to seven hours later after light exposure (˜2 pm); nighttime described herein refers to four hours later after dim light ([…]). These behavior tests were carried out at daytime (˜2 pm) and nighttime (˜11 pm), given the differential expression of Bmal1 in cerebellum having the highest level at ˜2 pm and the lowest level at ˜11 pm.
# Footprint test: Three measurements were included: i) front paw distance; ii) hind paw distance; and iii) stride. The footprint behavior tool was custom-made to have a narrow, foot-printable glass plate with the length of 85 cm and the width of 5 cm. Each paw distance was measured with footsteps printed during the walking across the narrow road.
# C57BU6J mice [3] = assay: Elevated beam test on 3AP-induced ataxia mice
# Source text: as §2
# Elevated beam test: Every single slip was counted during the walking^43. Mice were requested to walk through a wall with a distance of 40 cm, a height of 16 cm and a width of 0.5 cm. All tests were conducted in a quiet environment without noise and bright light disturbance.
# Per1 = assay: Quantitative RT-PCR of brain regions, Per1 mRNA
# Description: as §1
# C57BU6J mice [4] = assay: Rotarod test on 3AP-induced ataxia mice; details: for motor learning, percentage change in rotarod performance: 3AP local; for rotarod-based motor behavior: 3AP-induced ataxia mice, FIG. 1C
# Source text: as §2
# Rotarod test: It has been widely used in determining general motor skills. In brief, mice walked on the rotarod with a width of 5 cm, a height of 20 cm and a diameter of 3 cm of rolling rods. The total time for mice to sustain on the rotarod in increasing speeds at a unit of revolution per minute (rpm) was taken for a measurement of motor skills such as balance and gait functions. Motor learning was calculated as a percentage change in the performance (at a maximum speed) over 5 min, 10 min or 15 min blocks sequentially.
# Calbindin = assay: Immunohistochemistry of cerebellar tissue, relative calbindin intensity; details: 3AP-injected mice, relative to WT 1.00, FIG. 3C
# Description: (§3) The cerebellar tissue was isolated from anesthetized mice (six weeks old) and fixed with paraformaldehyde in […] (Thermofisher scientific, USA) and overnight at 4° C. The cerebellar tissue was then dehydrated by being incubated with PBS containing 30% sucrose at 4° C. then embedded in optimal cutting temperature (OCT) medium (Thermofisher scientific, USA) and frozen by using dry ice. The frozen tissues were cut with a cryostat (Thermo HM525NX Cryostat with UV Disinfection, Thermofisher scientific, USA) at 20 µm thickness and slices were placed on glass slides (Thermofisher scientific, USA). For immunohistochemical analysis, cerebellar tissue specimens were washed with PBS for 30 min and blocked with 10% bovine serum albumin (Sigma-Aldrich, USA) in PBST for 30 min at room temperature and then incubated with respective primary antibodies (Calbindin [8 μg/mL]: Invitrogen, USA; Tyrosine Hydrolase [1:400]: Invitrogen. USA) for overnight at 4° C. The specimens were further incubated with secondary antibodies (1:1500, Invitrogen. USA) for overnight at 4° C. […] The DAPI intensity and primary antibody (Calbindin or Tyrosine Hydrolase) intensity were recorded. The relative primary antibody intensity was calculated based on the following formula: […]
# Clock = assay: Quantitative RT-PCR of brain regions, Clock mRNA
# Description: as §1
# Tyrosine Hydrolase (TH) = assay: Immunohistochemistry of substantia nigra compacta, Tyrosine Hydrolase expression; details: 3AP ataxia model vs wildtype, FIGS. 6A and 6B
# Description: as §3
# C57BU6J mice [5] = assay: Irregular ladder test on 3AP-induced ataxia mice
# Source text: as §2
# Irregular ladder test: A mouse was requested to walk through an irregularly arranged ladder with a distance of 85 cm and a width of 5 cm. Every single slip during walk steps was counted as a failure of gait and balance measurement.
compound,measurement,setting,value
"CC(=O)c1cccnc1 [3AP, 3-acetyl pyridine]","Relative level of mRNA, Cry1","Cry1; 25 mg 3AP, Cerebellum",0.82
same,"Relative level of mRNA, Cry1","Cry1; 25 mg 3AP, Inferior Olive",0.74
same,"Relative level of mRNA, Cry1","Cry1; 25 mg 3AP, Motor cortex",0.87
same,"Relative level of mRNA, Cry1","Cry1; 25 mg 3AP, Striatum",0.91
same,"Relative level of mRNA, Cry1","Cry1; 35 mg 3AP, Cerebellum",0.66
same,"Relative level of mRNA, Cry1","Cry1; 35 mg 3AP, Inferior Olive",0.70
same,"Relative level of mRNA, Cry1","Cry1; 35 mg 3AP, Motor cortex",0.68
same,"Relative level of mRNA, Cry1","Cry1; 35 mg 3AP, Striatum",0.89
same,Survival time,"C57BU6J mice [1]; 0.05 mg/kg, stereotaxic local injection to the cerebellum",No ataxia
same,Survival time,"C57BU6J mice [1]; 0.1 mg/kg, stereotaxic local injection to the cerebellum",>120 h
same,Survival time,"C57BU6J mice [1]; 0.15 mg/kg, stereotaxic local injection to the cerebellum",No survive
same,Survival time,"C57BU6J mice [1]; 0.2 mg/kg, stereotaxic local injection to the cerebellum",No survive
same,Survival time,"C57BU6J mice [1]; 25 mg/kg, intraperitoneal systematic injection",No ataxia
same,Survival time,"C57BU6J mice [1]; 35 mg/kg, intraperitoneal systematic injection",>120 h
same,Survival time,"C57BU6J mice [1]; 45 mg/kg, intraperitoneal systematic injection",24 h
same,Survival time,"C57BU6J mice [1]; 50 mg/kg, intraperitoneal systematic injection",8 h
same,Survival time,"C57BU6J mice [1]; 65 mg/kg, intraperitoneal systematic injection",3 h
same,Survival time,"C57BU6J mice [1]; 70 mg/kg, intraperitoneal systematic injection",0.25 h
same,"Relative level of mRNA, Bmal1","Bmal1; 25 mg 3AP, Cerebellum",0.82
same,"Relative level of mRNA, Bmal1","Bmal1; 25 mg 3AP, Inferior Olive",0.85
same,"Relative level of mRNA, Bmal1","Bmal1; 25 mg 3AP, Motor cortex",0.93
same,"Relative level of mRNA, Bmal1","Bmal1; 25 mg 3AP, Striatum",0.94
same,"Relative level of mRNA, Bmal1","Bmal1; 35 mg 3AP, Cerebellum, 0.00 = extremely low concentration or the absence of the gene tested",0.00***
same,"Relative level of mRNA, Bmal1","Bmal1; 35 mg 3AP, Inferior Olive, 0.00 = extremely low concentration or the absence of the gene tested",0.00***
same,"Relative level of mRNA, Bmal1","Bmal1; 35 mg 3AP, Motor cortex, 0.00 = extremely low concentration or the absence of the gene tested",0.00***
same,"Relative level of mRNA, Bmal1","Bmal1; 35 mg 3AP, Striatum, 0.00 = extremely low concentration or the absence of the gene tested",0.00***
same,mRNA expression of Bmal1,"Bmal1; local 3AP-intoxicated mice vs wildtype control, daytime, FIG. 3B",far reduced
same,front paw distance,"C57BU6J mice [2]; 35 mg/kg 3AP-injected mice, FIG. 1A, WT 1.084",0.832±0.112 cm
same,hind paw distance,"C57BU6J mice [2]; 35 mg/kg 3AP-injected mice, FIG. 1A, WT 2.09",4.67±0.208 cm
same,stride,"C57BU6J mice [2]; 35 mg/kg 3AP-injected mice, FIG. 1A, WT 5.27",1.11±0.088 cm
same,hind paw distance,"C57BU6J mice [2]; local 3AP-intoxicated mice without Bmal1 viral vector, FIG. 4C, wildtype 2.13",4.28±0.314 cm
same,stride,"C57BU6J mice [2]; local 3AP-intoxicated mice without Bmal1 viral vector, FIG. 4D, wildtype 5.02",1.10±0.124 cm
same,front paw distance,"C57BU6J mice [2]; local 3AP-intoxicated mice without Bmal1 viral vector, FIG. 4E, wildtype 1.12",1.10±0.053 cm
same,slips in the elevated beam test,"C57BU6J mice [3]; 3AP local injection in the cerebellum, FIG. 2B, WT 0.87",10.46±0.92
same,"number of slips, elevated beam","C57BU6J mice [3]; 3AP-induced ataxia mice, day, FIG. 1D, WT day 0.93",10.23±0.23
same,"number of slips, elevated beam","C57BU6J mice [3]; 3AP-induced ataxia mice, night, FIG. 1D, WT night 9.92",10.24±0.23
same,"number of slips, elevated beam","C57BU6J mice [3]; local 3AP-intoxicated mice without Bmal1 viral vector, FIG. 4H, wildtype 0.85",10.7±0.176
same,"Relative level of mRNA, Per1","Per1; 25 mg 3AP, Cerebellum",0.81
same,"Relative level of mRNA, Per1","Per1; 25 mg 3AP, Inferior Olive",0.88
same,"Relative level of mRNA, Per1","Per1; 25 mg 3AP, Motor cortex",0.87
same,"Relative level of mRNA, Per1","Per1; 25 mg 3AP, Striatum",0.76
same,"Relative level of mRNA, Per1","Per1; 35 mg 3AP, Cerebellum",0.77
same,"Relative level of mRNA, Per1","Per1; 35 mg 3AP, Inferior Olive",0.90
same,"Relative level of mRNA, Per1","Per1; 35 mg 3AP, Motor cortex",0.87
same,"Relative level of mRNA, Per1","Per1; 35 mg 3AP, Striatum",0.86
same,performance in the rotarod test,"C57BU6J mice [4]; 3AP local injection in the cerebellum, daytime, FIG. 2A, WT 29.32",14.32±1.02 rpm
same,"motor learning, percentage change in rotarod performance","C57BU6J mice [4]; training time 5 min, Wild Type 76.4",−4.8 ± 4.22%
same,"motor learning, percentage change in rotarod performance","C57BU6J mice [4]; training time 10 min, Wild Type 88.6",−4.1 ± 7.32%
same,"motor learning, percentage change in rotarod performance","C57BU6J mice [4]; training time 15 min, Wild Type 95.46",−4.5 ± 4.12%
same,rotarod-based motor behavior,"C57BU6J mice [4]; day, WT day 28.00",14.57±1.38 rpm
same,rotarod-based motor behavior,"C57BU6J mice [4]; night, WT night 17.25",15.22±0.78 rpm
same,rotarod performance,"C57BU6J mice [4]; local 3AP-intoxicated mice without Bmal1 viral vector, FIG. 4G, wildtype 30",14.2±0.130 rpm
same,expression of calbindin in the Purkinje cell layer (relative intensity),Calbindin,0.123±0.052
same,"Relative level of mRNA, Clock","Clock; 25 mg 3AP, Cerebellum",0.83
same,"Relative level of mRNA, Clock","Clock; 25 mg 3AP, Inferior Olive",0.86
same,"Relative level of mRNA, Clock","Clock; 25 mg 3AP, Motor cortex",0.93
same,"Relative level of mRNA, Clock","Clock; 25 mg 3AP, Striatum",0.77
same,"Relative level of mRNA, Clock","Clock; 35 mg 3AP, Cerebellum",0.94
same,"Relative level of mRNA, Clock","Clock; 35 mg 3AP, Inferior Olive",0.59*
same,"Relative level of mRNA, Clock","Clock; 35 mg 3AP, Motor cortex",0.82
same,"Relative level of mRNA, Clock","Clock; 35 mg 3AP, Striatum",0.87
same,Tyrosine Hydrolase (TH) expression in substantia nigra compacta (SNc),Tyrosine Hydrolase (TH),similarly expressed
same,"number of slips, irregular ladder","C57BU6J mice [5]; 3AP-induced ataxia mice, FIG. 1B, WT 1.61",8.92±0.178
same,"number of slips, irregular ladder","C57BU6J mice [5]; local 3AP-intoxicated mice without Bmal1 viral vector, FIG. 4F, wildtype 0.87",11.2±0.075
